# Test system: T1, laccase isozyme 3 (purified laccase from Ganoderma lucidum-CDBT1)
# T1 construct: native secreted enzyme purified from culture medium (ammonium sulfate, DEAE Sepharose); 43 kDa by SDS-PAGE
# Test: ABTS oxidation at […] nm, Lineweaver-Burk
# Type: biochemical
# Details: 0.1 M sodium acetate pH 5.0, room temperature (~25°C); ABTS 0.01 to 10 mM; co-substrate O2
smiles,measurement,value
"CCn1c(=NN=c2sc3cc(S(=O)(=O)O)ccc3n2CC)sc2cc(S(=O)(=O)O)ccc21 [ABTS, 2,2′-azino-bis(3-ethylbenzothiazoline-6-sulfonic acid)]",Km,110 µM

# From PMC5086383, “Isolation and Physicochemical Characterization of Laccase from Ganoderma lucidum-CDBT1 Isolated from Its Native Habitat in Nepal” (BioMed Research International, 2016)
